Measurements: ChEMBL document CHEMBL1126488, “A new designed tumor selective daunomycin derivative” (Bioorg Med Chem Lett, 1993)

Experiments:
[1] = test system: HMEC; experiment: Cytotoxicity of compound was tested against HMEC cell line (human mamm epithelial cells) after incubation for 72 hour; format: functional, cell-based
[2] = test system: HT-29; experiment: Cytotoxicity of compound was tested against HT-29 cell line (colon carcinoma) after incubation for 72 hour; format: functional, cell-based; conditions: Homo sapiens, HT-29, 72 h
[3] = test system: P388; experiment: Cytotoxicity of compound was tested against P-388 cell line (mouse leukemia) after incubation for 72 hour; format: functional, cell-based; conditions: P388, 72 h
[4] = test system: NHDF; experiment: Cytotoxicity of compound was tested against NHDF cell line (norm human dermal fibroblast) after incubation for 72 hour; format: functional, cell-based
[5] = test system: HMEC; experiment: Cytotoxicity of compound was tested against HMEC cell line (human mamm epithelial cells) after incubation for 24 hour; format: functional, cell-based
[6] = test system: CAPAN-1; experiment: Cytotoxicity of compound was tested against Capan-1 cell line (pancreatic carcinoma) after incubation for 24 hour; format: functional, cell-based; conditions: Homo sapiens, CAPAN-1, 24 h
[7] = test system: MOLT-4; experiment: Cytotoxicity of compound was tested against Molt-4 cell line (T-cell leukemia) after incubation for 24 hour; format: functional, cell-based; conditions: Homo sapiens, MOLT-4, 24 h
[8] = test system: SK-MEL-28; experiment: Cytotoxicity of compound was tested against SK-Mel-28 cell line (melanoma) after incubation for 72 hour; format: functional, cell-based; conditions: Homo sapiens, SK-MEL-28, 72 h
[9] = test system: OVCAR-3; experiment: Cytotoxicity of compound was tested against Ovcar-3 cell line (ovarian carcinoma) after incubation for 24 hour; format: functional, cell-based; conditions: Homo sapiens, OVCAR-3, 24 h
[10] = test system: CHO; experiment: Cytotoxicity of compound was tested against CHO cell line (Chinese hamster ovary) after incubation for 24 hour; format: functional, cell-based; conditions: Cricetulus griseus
[11] = test system: CHO; experiment: Cytotoxicity of compound was tested against CHO cell line (Chinese hamster ovary) after incubation for 72 hour; format: functional, cell-based; conditions: Cricetulus griseus
[12] = test system: HL-60; experiment: Cytotoxicity of compound was tested against HL-60 cell line (promyelocytic leukemia) after incubation for 24 hour; format: functional, cell-based; conditions: Homo sapiens, HL-60, 24 h
[13] = test system: MCF7; experiment: Cytotoxicity of compound was tested against MCF-7 cell line (breast carcinoma) after incubation for 24 hour; format: functional, cell-based; conditions: Homo sapiens, MCF7, 24 h
[14] = test system: MCF7; experiment: Cytotoxicity of compound was tested against MCF-7 cell line (breast carcinoma) after incubation for 72 hour; format: functional, cell-based; conditions: Homo sapiens, MCF7, 72 h
[15] = test system: CAPAN-1; experiment: Cytotoxicity of compound was tested against […] cell line (pancreatic carcinoma) after incubation for 72 hour; format: functional, cell-based; conditions: Homo sapiens, CAPAN-1, 72 h
[16] = test system: UCLA P-3; experiment: Cytotoxicity of compound was tested against UCLA P-3 cell line (lung carcinoma) after incubation for 24 hour; format: functional, cell-based; conditions: Homo sapiens, UCLA P-3, 24 h
[17] = Lethal dose of compound required when administered BALB C mice; format: toxicity; conditions: mouse, in vivo
[18] = test system: SK-MEL-28; experiment: Cytotoxicity of compound was tested against SK-Mel-28 cell line (melanoma) after incubation for 24 hour; format: functional, cell-based; conditions: Homo sapiens, SK-MEL-28, 24 h
[19] = test system: OVCAR-3; experiment: Cytotoxicity of compound was tested against Ovcar-3 cell line (ovarian carcinoma) after incubation for 72 hour; format: functional, cell-based; conditions: Homo sapiens, OVCAR-3, 72 h
[20] = test system: NHDF; experiment: Cytotoxicity of compound was tested against NHDF cell line (norm human dermal fibroblast) after incubation for 24 hour; format: functional, cell-based
[21] = test system: HL-60; experiment: Cytotoxicity of compound was tested against HL-60 cell line (promyelocytic leukemia) after incubation for 72 hour; format: functional, cell-based; conditions: Homo sapiens, HL-60, 72 h
[22] = test system: P388; experiment: Cytotoxicity of compound was tested against P-388 cell line (mouse leukemia) after incubation for 24 hour; format: functional, cell-based; conditions: P388, 24 h
[23] = test system: HT-29; experiment: Cytotoxicity of compound was tested against HT-29 cell line (colon carcinoma) after incubation for 24 hour; format: functional, cell-based; conditions: Homo sapiens, HT-29, 24 h

COc1cccc2c1C(=O)c1c(O)c3c(c(O)c1C2=O)C[C@@](O)(C(C)=O)C[C@@H]3O[C@H]1C[C@H](N)[C@H](O)[C@H](C)O1.Cl [DAUNORUBICIN HYDROCHLORIDE]
IC50 [1]: < 98 nM
IC50 [2]: 357 nM
IC50 [3]: < 98 nM
IC50 [4]: 404 nM
IC50 [5]: 390 nM
IC50 [6]: 390 nM
IC50 [7]: 1 nM
IC50 [8]: 1410 nM
IC50 [9]: 390 nM
IC50 [10]: 390 nM
IC50 [11]: 294 nM
IC50 [12]: < 98 nM
IC50 [13]: 780 nM
IC50 [14]: 13500 nM
IC50 [15]: 3100 nM
IC50 [16]: 730 nM
LD50 [17]: 15 mg/kg
IC50 [18]: 1600 nM
IC50 [19]: 287 nM
IC50 [20]: 190 nM
IC50 [21]: 98 nM
IC50 [22]: 390 nM
IC50 [23]: 780 nM
